Reference: US20140163044A1, “Compound Chemical Medicine Acting on Respiratory Disease, Preparation Process and Use Thereof” (HUNAN JIUDIAN PHARMACEUTICAL CO., LTD., priority 2011, published 2014)

How the values were obtained:
[1] = system: outpatients or inpatients with cough; experiment: Trials for observing the clinical effect of the tablet in patients with cough; assay type: in vivo; conditions: 100 cases per group, oral, one tablet 3 times a day, 5-day course; for Efficacy: Ineffective: cough not improved or aggravated; for Efficacy: Improved: cough reduced 3 to 2 points or 2 to 1 points; for Efficacy: Effective: cough reduced to 1 point from 3 points; for Efficacy: Clinically controlled: symptoms disappeared completely
Description: Trials for observing the clinical effect of the tablet of the present invention was conducted in the People's Hospital of Yongshun County, Hunan Province.
300 outpatients or inpatients with cough caused by acute upper respiratory tract infection, acute tracheitis and bronchitis, community-acquired pneumonia, and acute exacerbation of chronic bronchitis were randomly divided into a treatment group […], 100 patients for each group. Medicines were administered following the double-blind double-dummy positive medicine parallel control method. The tablets of the present invention, the control medicine levodropropizine tablets or carbocisteine tablets were taken by each group, respectively. Each group orally takes the tablets 3 times a day, one tablet (including analog tablet) each time, for a 5-day course of treatment. Other antitussive or expectorant medicine was stopped during the administration. The patients' conventional indicators such as blood pressure, pulse rate, body temperature, respiration, etc.; symptoms of cough; chest x-ray; blood and urine routine tests; liver and kidney functions; adverse reaction records and electrocardiogram were recorded.
Criteria for evaluating the efficacy are as follows: clinically controlled: symptoms disappeared completely; effective: symptoms of cough reduced to 1 point from 3 points; improved: symptoms of cough reduced to 2 points from 3 points or reduced to 1 points from 2 points; ineffective: symptoms of cough were not improved or aggravated.

guinea pigs = experiment: Antitussive effect in guinea pigs (induced cough 1 h or 4 h after oral administration); assay type: in vivo; conditions: for Effect on latent period of cough and cough times (in words): all dose groups; for Cough times before administration (in 5 min) / Latent period of cough / cough count: oral; for Cough times before administration (in 5 min): baseline before administration
Source text: The pharmacodynamic test for the pharmaceutical composition of the present invention: • 1. Studies on the Antitussive Effect
Medicines used in the test:
Test medicine: self-made tablets of the pharmaceutical composition comprising levodropropizine and carbocisteine by the inventors
Positive control medicine: levodropropizine tablets and carbocisteine tablets
150 guinea pigs (half male and half female) with a body mass of 300±25 g are taken and evenly divided into 15 groups, with 10 in each group. The administration group for the tablet of the present invention is divided into high dose group, medium dose group and low dose group, and the tablets are orally administered respectively; the administration groups for the positive control medicine levodropropizine is also divided into high dose group, medium dose group and low dose group. Each dose group is divided into two groups, respectively the group inducing cough at the first hour or the fourth hour after administration.

[2] = 30 mg/kg, four hours after administration
[3] = 30 mg/kg, one hour after administration
[4] = 60 mg/kg, four hours after administration
[5] = 60 mg/kg, one hour after administration
[6] = 120 mg/kg, four hours after administration
[7] = 120 mg/kg, one hour after administration

Row | Compound | Effective rate [1] | Efficacy: Ineffective [1] | Efficacy: Improved [1] | Efficacy: Effective [1] | Efficacy: Clinically controlled [1] | Effect on latent period of cough and cough times (in words) (guinea pigs) | Cough times before administration (in 5 min) (guinea pigs; 60 mg/kg group, 1 h group) | Cough times before administration (in 5 min) (guinea pigs; 60 mg/kg group, 4 h group) | Latent period of cough (guinea pigs; [4]) | cough count (guinea pigs; [4]) | Latent period of cough (guinea pigs; [5]) | cough count (guinea pigs; [5]) | other results
1 | OC[C@@H](O)CN1CCN(c2ccccc2)CC1 [Levodropropizine tablet, levodropropizine] | 92% | 8 cases | 17 cases | 15 cases | 60 cases | effects of prolonging latent period of cough and reducing cough times | 25.41 ± 5.26 in 5 min | 25.89 ± 4.06 in 5 min | 40.27 ± 5.29 s | 17.2 ± 3.45 | 42.38 ± 5.98 s | 17.6 ± 3.97 | Cough times before administration (in 5 min) (guinea pigs; 30 mg/kg group, 1 h group): 25.14 ± 4.37 in 5 min; Cough times before administration (in 5 min) (guinea pigs; 30 mg/kg group, 4 h group): 25.74 ± 3.71 in 5 min; Latent period of cough (guinea pigs; [2]): 36.34 ± 4.68 s; cough count (guinea pigs; [2]): 19.4 ± 5.03; Latent period of cough (guinea pigs; [3]): 38.16 ± 5.88 s; cough count (guinea pigs; [3]): 19.1 ± 4.15; Cough times before administration (in 5 min) (guinea pigs; 120 mg/kg group, 1 h group): 25.18 ± 5.31 in 5 min; Cough times before administration (in 5 min) (guinea pigs; 120 mg/kg group, 4 h group): 26.27 ± 3.98 in 5 min; Latent period of cough (guinea pigs; [6]): 42.18 ± 3.18 s; cough count (guinea pigs; [6]): 15.1 ± 3.97; Latent period of cough (guinea pigs; [7]): 49.57 ± 6.87 s; cough count (guinea pigs; [7]): 14.2 ± 4.25
2 | N[C@@H](CSCC(=O)O)C(=O)O [Carbocisteine tablet, carbocisteine] | 86% | 14 cases | 40 cases | 18 cases | 28 cases | no obviously effect on prolonging the latent period of cough and reducing the cough times | 25.24 ± 4.53 in 5 min | 26.04 ± 4.37 in 5 min | 32.56 ± 5.17 s | 20 ± 4.24 | 31.28 ± 6.42 s | 21.1 ± 3.98 | 
